Entries after “also recorded” stand apart in the source; their conditions may differ. Structures can show the parent of a compound that is named as a salt.
Test system: animals exposed to chronic mild stress
Assay: Chronic mild stress (CMS) model, consumption of 1% sucrose solution
Format: in vivo, rat
Conditions: for effect on sucrose intake one week after cessation of treatments: stressed animals
Description: Male Wistar rats (Charles River, Germany) were brought into the laboratory one month before the start of the experiment. Except as described below, the animals were singly housed with food and water freely available, and were maintained on a 12-h light/dark cycle, in a constant temperature (22±2° C.) and humidity (50±5%) conditions.
After a period of 2 weeks of adaptation to laboratory and housing conditions, the animals were first trained to consume a 1% sucrose solution; training consisted of nine 1 h baseline tests in which sucrose was presented, in the home cage, following 14 h food and water deprivation; the sucrose intake was measured by weighing pre-weighed bottles containing the sucrose solution, at the end of the test. Subsequently, the sucrose consumption was monitored, under similar conditions, at weekly intervals throughout the whole experiment.
On the basis of their sucrose intakes in the final baseline test, the animals were divided into two matched groups. One group of animals was subjected to the chronic mild stress procedure for a period of 8 consecutive weeks. Each week of stress regime consisted of: two periods of food or water deprivation, two periods of 45 degree cage tilt, two periods of intermittent illumination (lights on and off every 2 h), two periods of soiled cage (250 ml water in sawdust bedding), one period of paired housing, two periods of low intensity stroboscopic illumination (150 flashes/min), and three periods of no stress. All stressors were 10-14 h of duration and were applied individually and continuously, day and night. Control animals were housed in separate rooms and had no contact with the stressed animals. They were deprived of food and water for the 14 h preceding each sucrose test, but otherwise food and water were freely available in the home cage.
On the basis of their sucrose intakes following initial 2 weeks of stress, both the stressed and the control groups were each divided further into matched subgroups (n=8), and for subsequent five weeks they received once daily intraperitoneal injections of vehicle (0.5% hydroxypropylmethylcellulose, 1 ml/kg), SON-117 (0.001, 0.01, 0.1 and 1 mg/kg) or imipramine (10 mg/kg) as the reference treatment. The drugs were administered at approx. 10:00 AM and the weekly sucrose tests were carried out 24 h following the last drug injections. After five weeks all treatments were terminated and one additional sucrose test was carried out after one week of withdrawal. Stress was continued throughout the period of treatment and withdrawal.
After completion of the administration and withdrawal period, all control and stressed animals were placed in an open field (100 cm in diameter, 35 cm high) and allowed to explore two identical objects (cylinder-shaped object with walls painted white, 7 cm in diameter, 11 cm high) for the time required to complete 15 s of exploration of either object. For the retention trial conducted one hour later, one of the objects presented previously was replaced with a novel object (prism-shaped object with walls painted black, 5 cm wide, 14 cm high). Rats were returned to the open field for 5 min and the duration of exploration (i.e. sitting in close proximity to the objects, sniffing or touching them) of each object was measured separately by a trained observer. The data were calculated according to the following formula: [time of novel object exploration divided by time of novel plus familiar object exploration multiplied by 100]. The CMS and NOR data were analyzed by multiple analyses of variance with three between-subjects factors (stress/control, drug treatments and intakes in successive sucrose tests). The Fisher's LSD test was used for the post-hoc comparisons of means.

Cc1nnc(-c2cc3c(OC[C@@H](O)CN4CCC(c5ccc(Cl)c(Cl)c5)CC4)cccc3o2)o1 [SON-117, (S)-1-(4-(3,4-dichlorophenyl)piperidino)-3-(2-(5-methyl-1,3,4-oxadiazol-2-yl)benzo(b)furan-4-yloxy)-2-propanol hydrochloride]
dose at which rapid-onset normalization of sucrose intake was observed (as low as) (CMS model): 1 µg/kg | effect on sucrose intake one week after cessation of treatments (SON-117 0.001 mg/kg): maintained | time at which increase of sucrose consumption in stressed animals reached significance vs Week 0 (SON-117 0.001 and 0.01 mg/kg IP (only these doses significant vs Week 0)): first week | onset of action: enhancement of sucrose intakes reached statistical significance (SON-117 0.001 and 1.0 mg/kg): first week | effect on sucrose intake one week after cessation of treatments (SON-117 1 mg/kg): abolished | effectiveness in the CMS model (SON-117 0.01 and 0.1 mg/kg): less effective than imipramine | magnitude of action in the CMS model (SON-117 most active doses (0.001 and 1.0 mg/kg)): comparable to that of imipramine | sucrose intake in control animals, compared to vehicle (once daily IP for five weeks, imipramine 10 mg/kg, SON-117 all doses (0.001, 0.01, 0.1 and 1 mg/kg)): no significant effect | sucrose consumption in stressed animals, compared to vehicle (once daily IP for five weeks, imipramine 10 mg/kg, SON-117 all four doses (0.001-1 mg/kg), hydrochloride): significant effects; also recorded: enhanced
